In brackets after ≈: the same amount, converted by molar mass.
How the values were obtained:
Assay type in all cases: functional
Fusarium oxysporum = assay: Antifungal activity against Fusarium oxysporum ATCC 28856 assessed as fungal growth inhibition incubated for 24 hrs by serial dilution method
Candida albicans = assay: Antifungal activity against Candida albicans SC5314 assessed as fungal growth inhibition incubated for 24 hrs by serial dilution method
Cryptococcus neoformans = assay: Antifungal activity against Cryptococcus neoformans GOYJ11988 assessed as fungal growth inhibition incubated for 24 hrs by serial dilution method

SMILES | MIC (Fusarium oxysporum) | MIC (Candida albicans) | MIC (Cryptococcus neoformans)
C[C@@H]1C(=O)N2CCC[C@H]2[C@]2(O)O[C@@](C)(NC(=O)/C=C/c3ccccc3)C(=O)N12 | 25 µg/mL (≈ 64.9 µM) | 40 µg/mL (≈ 104 µM) | 80 µg/mL (≈ 208 µM)
C[C@@H]1C(=O)N2CCC[C@H]2[C@]2(O)O[C@@](CO)(NC(=O)/C=C/c3ccccc3)C(=O)N12 | 12.5 µg/mL (≈ 31.1 µM) | 40 µg/mL (≈ 99.6 µM) | 80 µg/mL (≈ 199 µM)
